System: AMP-activated protein kinase (AMPK)
Assay: ADP Quest assay for AMPK activators
Type: biochemical
Parameters: key: fold AMPK activation with vs without activator at 30 µM
Conditions: fold of AMPK activation to phosphorylate SAMS peptide without and with an activator at the concentration of 30 µM
Method in brief: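 E30, the fold increase in SAMS peptide phosphorylation at 30 µM compound relative to no activator, is derived from kinetic fluorescent detection of ADP (ex 530, em 590 nm). AMPK starts the ATP-containing reaction at room temperature; compounds span […] by 2-fold steps, AMP serves as reference.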

| E30 | SMILES |
| --- | --- |
| 1.25 | CN1CCN(c2cccc(C3Nc4ccc(C(=O)NS(=O)(=O)C5CC5)cc4CC3(C)C)c2)C(=O)C1=O (stereo not shown) [Example 129, Cyclopropanesulfonic acid {3,3-dimethyl-2-[3-(4-methyl-2,3-dioxo-piperazin-1-yl)-phenyl]-1,2,3,4-tetrahydro-quinoline-6-carbonyl}-amide] |
| 1.25 | CC1(C)Cc2cc(C(=O)NS(=O)(=O)C3CC3)ccc2NC1c1cccc(N2C(=O)OC[C@H]2Cc2ccccc2)c1 (stereo partly drawn) [Example 130, Cyclopropanesulfonic acid {2-[3-((R)4-benzyl-2-oxo-oxazolidin-3-yl)-phenyl]-3,3-dimethyl-1,2,3,4-tetrahydro-quinoline-6-carbonyl}-amide] |
| 1.24 | CN1CCN(c2cccc(C3Nc4ccc(C(=O)NS(C)(=O)=O)cc4CC3(C)C)c2)C(=O)C1=O (stereo not shown) [Example 131, N-{3,3-Dimethyl-2-[3-(4-methyl-2,3-dioxo-piperazin-1-yl)-phenyl]-1,2,3,4-tetrahydro-quinoline-6-carbonyl}-methanesulfonamide] |
| 1.23 | CC1(C)Cc2cc(C(=O)NS(=O)(=O)C3CC3)ccc2NC1c1cccc(N2C(=O)OC[C@@H]2Cc2ccccc2)c1 (stereo partly drawn) [Example 132, Cyclopropanesulfonic acid {2-[3-((S)-4-benzyl-2-oxo-oxazolidin-3-yl)-phenyl]-3,3-dimethyl-1,2,3,4-tetrahydro-quinoline-6-carbonyl}-amide] |
| 1.2 | CC1(C)Cc2c(C(=O)NS(=O)(=O)C3CC3)ccc(Cl)c2NC1c1cccc(N2CCOCC2)c1 (stereo not shown) [Example 133, Cyclopropanesulfonic acid [8-chloro-3,3-dimethyl-2-(3-morpholin-4-yl-phenyl)-1,2,3,4-tetrahydro-quinoline-5-carbonyl]-amide] |
| 1.32 | CC1(C)Cc2c(cc(F)cc2C(=O)O)NC1c1cccc(N2CCOCC2)c1 (stereo not shown) [Example 134, 7-Fluoro-3,3-dimethyl-2-(3-morpholin-4-yl-phenyl)-1,2,3,4-tetrahydro-quinoline-5-carboxylic acid] |
| 1.31 | CC1(C)Cc2c(cc(F)cc2C(=O)NS(C)(=O)=O)NC1c1cccc(N2CCOCC2)c1 (stereo not shown) [Example 135, N-[7-Fluoro-3,3-dimethyl-2-(3-morpholin-4-yl-phenyl)-1,2,3,4-tetrahydro-quinoline-5-carbonyl]-methanesulfonamide] |
| 1.3 | CC1(C)Cc2cc(C(=O)O)ccc2NC1c1cccc(-n2cnc3c(c2=O)CCN(Cc2ccccc2)C3)c1 (stereo not shown) [Example 136, 2-[3-(7-Benzyl-4-oxo-5,6,7,8-tetrahydro-4H-pyrido[3,4-d]pyrimidin-3-yl)-phenyl]-3,3-dimethyl-1,2,3,4-tetrahydro-quinoline-6-carboxylic acid] |
| 1.26 | CC1(C)Cc2ccc(C(=O)O)c(F)c2NC1c1cccc(N2CCOCC2)c1 (stereo not shown) [Example 137, 8-Fluoro-3,3-dimethyl-2-(3-morpholin-4-yl-phenyl)-1,2,3,4-tetrahydro-quinoline-7-carboxylic acid] |
| 1.21 | CC1(C)Cc2c(cc(F)cc2C(=O)NS(=O)(=O)C2CC2)NC1c1cccc(N2CCOCC2)c1 (stereo not shown) [Example 138, Cyclopropanesulfonic acid [7-fluoro-3,3-dimethyl-2-(3-morpholin-4-yl-phenyl)-1,2,3,4-tetrahydro-quinoline-5-carbonyl]-amide] |
| 1.38 | CN1CCN(c2cccc(C3Nc4c(cc(Cl)cc4C(=O)NS(=O)(=O)C4CC4)CC3(C)C)c2)CC1 (stereo not shown) [Example 139, Cyclopropanesulfonic acid {6-chloro-3,3-dimethyl-2-[3-(4-methyl-piperazin-1-yl)-phenyl]-1,2,3,4-tetrahydro-quinoline-8-carbonyl}-amide] |
| 1.34 | CC(C)c1ccc(-c2cccc(C3Nc4c(cc(Cl)cc4C(=O)O)CC3(C)C)c2)cc1 (stereo not shown) [Example 140, 6-Chloro-2-(4′-isopropyl-biphenyl-3-yl)-3,3-dimethyl-1,2,3,4-tetrahydro-quinoline-8-carboxylic acid] |
| 1.3 | CN(C)c1ccc(-c2cccc(C3Nc4c(cc(Cl)cc4C(=O)NS(=O)(=O)C4CC4)CC3(C)C)c2)cc1 (stereo not shown) [Example 141, Cyclopropanesulfonic acid [6-chloro-2-(4′-dimethylamino-biphenyl-3-yl)-3,3-dimethyl-1,2,3,4-tetrahydro-quinoline-8-carbonyl]-amide] |
| 1.54 | CC(C)(C)c1ccc(-c2cccc(C3Nc4c(cc(Cl)cc4C(=O)O)CC3(C)C)c2)cc1 (stereo not shown) [Example 142, 2-(4′-tert-Butyl-biphenyl-3-yl)-6-chloro-3,3-dimethyl-1,2,3,4-tetrahydro-quinoline-8-carboxylic acid] |
| 1.33 | CC(C)(C)c1ccc(-c2cccc(C3Nc4c(cc(Cl)cc4C(=O)NS(=O)(=O)C4CC4)CC3(C)C)c2)cc1 (stereo not shown) [Example 143, Cyclopropanesulfonic acid [2-(4′-tert-butyl-biphenyl-3-yl)-6-chloro-3,3-dimethyl-1,2,3,4-tetrahydro-quinoline-8-carbonyl]-amide] |
| 1.25 | CC(C)(C)c1ccc(-c2cccc(C3Nc4c(cc(Cl)cc4C(=O)NS(C)(=O)=O)CC3(C)C)c2)cc1 (stereo not shown) [Example 144, N-[2-(4′-tert-Butyl-biphenyl-3-yl)-6-chloro-3,3-dimethyl-1,2,3,4-tetrahydro-quinoline-8-carbonyl]-methanesulfonamide] |

| E30 | SMILES |
| --- | --- |
| 1.22 | CCc1nnnn1-c1cccc(C2Nc3ccc(C(=O)NS(=O)(=O)C4CC4)cc3CC2(C)C)c1 (stereo not shown) [Example 145, Cyclopropanesulfonic acid {2-[3-(5-ethyl-tetrazol-1-yl)-phenyl]-3,3-dimethyl-1,2,3,4-tetrahydro-quinoline-6-carbonyl}-amide] |
| 1.21 | CCc1nnnn1-c1cccc(C2Nc3ccc(C(=O)NS(C)(=O)=O)cc3CC2(C)C)c1 (stereo not shown) [Example 146, N-{2-[3-(5-Ethyl-tetrazol-1-yl)-phenyl]-3,3-dimethyl-1,2,3,4-tetrahydro-quinoline-6-carbonyl}-methanesulfonamide] |
| 1.35 | CC1(C)Cc2cc(C(=O)O)ccc2NC1c1cccc(-n2nnnc2Cc2ccccc2)c1 (stereo not shown) [Example 147, 2-[3-(5-Benzyl-tetrazol-1-yl)-phenyl]-3,3-dimethyl-1,2,3,4-tetrahydro-quinoline-6-carboxylic acid] |
| 1.3 | CCc1nnnn1-c1cccc(C2Nc3ccc(C(=O)O)cc3CC2(C)C)c1 (stereo not shown) [Example 148, 2-[3-(5-Ethyl-tetrazol-1-yl)-phenyl]-3,3-dimethyl-1,2,3,4-tetrahydro-quinoline-6-carboxylic acid] |
| 1.26 | CC1(C)Cc2c(cc(Cl)cc2C(=O)NS(C)(=O)=O)NC1c1cccc(N2CCOCC2)c1 (stereo not shown) [Example 149, N-[7-Chloro-3,3-dimethyl-2-(3-morpholin-4-yl-phenyl)-1,2,3,4-tetrahydro-quinoline-5-carbonyl]-methanesulfonamide] |
| 1.22 | CC1(C)Cc2c(C(=O)NS(=O)(=O)C3CC3)ccc(F)c2NC1c1cccc(N2CCOCC2)c1 (stereo not shown) [Example 150, Cyclopropanesulfonic acid [8-fluoro-3,3-dimethyl-2-(3-morpholin-4-yl-phenyl)-1,2,3,4-tetrahydro-quinoline-5-carbonyl]-amide] |
| 1.66 | CC(C)(C)c1ccc(-c2cccc(C3Nc4ccc(F)c(C(=O)O)c4CC3(C)C)c2)cc1 (stereo not shown) [Example 151, 2-(4′-tert-Butyl-biphenyl-3-yl)-6-fluoro-3,3-dimethyl-1,2,3,4-tetrahydro-quinoline-5-carboxylic acid] |
| 1.41 | Cc1ccccc1N1CCN(c2cccc(C3Nc4ccc(C(=O)O)cc4CC3(C)C)c2)CC1 (stereo not shown) [Example 152, 3,3-Dimethyl-2-[3-(4-o-tolyl-piperazin-1-yl)-phenyl]-1,2,3,4-tetrahydroquinoline-6-carboxylic acid] |
| 1.27 | CC1(C)Cc2cc(C(=O)NS(=O)(=O)C3CC3)ccc2NC1c1cccc(N2CC(F)C2)c1 (stereo not shown) [Example 153, Cyclopropanesulfonic acid {2-[3-(3-fluoro-azetidin-1-yl)-phenyl]-3,3-dimethyl-1,2,3,4-tetrahydro-quinoline-6-carbonyl}-amide] |
| 1.24 | CC1(C)Cc2cc(C(=O)NS(C)(=O)=O)ccc2NC1c1cccc(N2CC(F)C2)c1 (stereo not shown) [Example 154, N-{2-[3-(3-Fluoro-azetidin-1-yl)-phenyl]-3,3-dimethyl-1,2,3,4-tetrahydro-quinoline-6-carbonyl}-methanesulfonamide] |
| 1.19 | Cc1ccccc1N1CCN(c2cccc(C3Nc4ccc(C(=O)NS(C)(=O)=O)cc4CC3(C)C)c2)CC1 (stereo not shown) [Example 155, N-{3,3-Dimethyl-2-[3-(4-o-tolyl-piperazin-1-yl)-phenyl]-1,2,3,4-tetrahydro-quinoline-6-carbonyl}-methanesulfonamide] |
| 1.66 | CC(C)(C)c1ccc(-c2cccc(C3Nc4ccc(F)c(C(=O)NS(=O)(=O)C5CC5)c4CC3(C)C)c2)cc1 (stereo not shown) [Example 156, Cyclopropanesulfonic acid [2-(4′-tert-butyl-biphenyl-3-yl)-6-fluoro-3,3-dimethyl-1,2,3,4-tetrahydro-quinoline-5-carbonyl]-amide] |
| 1.36 | CC(C)(C)c1ccc(-c2cccc(C3Nc4ccc(F)c(C(=O)NS(C)(=O)=O)c4CC3(C)C)c2)cc1 (stereo not shown) [Example 157, N-[2-(4′-tert-Butyl-biphenyl-3-yl)-6-fluoro-3,3-dimethyl-1,2,3,4-tetrahydro-quinoline-5-carbonyl]-methanesulfonamide] |
| 1.34 | CC1(C)Cc2cc(C(=O)O)ccc2NC1c1ccccc1 (stereo not shown) [Example 158, 3,3-Dimethyl-2-phenyl-1,2,3,4-tetrahydro-quinoline-6-carboxylic acid] |
| 1.31 | CC(C)NC(=O)c1ccc(-c2cccc(C3Nc4ccc(C(=O)O)cc4CC3(C)C)c2)cc1 (stereo not shown) [Example 159, 2-(4′-Isopropylcarbamoyl-biphenyl-3-yl)-3,3-dimethyl-1,2,3,4-tetrahydro-quinoline-6-carboxylic acid] |

Reference: patent publication US8586747B2, “3,3-dimethyl tetrahydroquinoline derivatives” (Hoffmann-La Roche Inc., priority 2010, dated 2013)
